Results published in US9040707B2, “Bicyclic thiazoles as allosteric modulators of mGluR5 receptors” (Janssen Pharmaceutica NV, priority 2009, dated 2015).
Counter-ions that a name gives are not always drawn.

Experiments:
[1] = target: T1, human mGluR5a receptor (Homo sapiens, UniProt P41594); assay: Functional Assay 2: Ca2+ mobilization, HEK cells with human mGluR5a receptor (H10H cell line); format: cell-based; settings: for EC50 / Emax: H10H cell line; for EC50: glutamate EC20; for Emax: HEK293, maximum average response at a single concentration, relative to glutamate ECMax
T1 construct: host or cells: HEK293A (monoclones H10H and H12H)
Procedure: Human mGluR5a cDNA in pCMV6-XL6 mammalian expression plasmid was purchased from OriGene Technologies, Inc. (catalogue number SC326357) and subcloned into pcDNA3.1(−). […] Monoclones were named for the species (“H” for human) plus the location on the plate (e.g. “10H”).
The following day, the growth medium was removed and the cells were washed with assay buffer containing 1× Hank's balanced salt solution (Invitrogen, Carlsbad, Calif.), 20 mM HEPES, 2.5 mM probenecid, pH 7.4 and left with 20 μL of this reagent. Following this step, the cells were loaded with calcium indicator dye, fluo-4 AM, to a final concentration of 2 μM and incubated for 40-45 min at 37° C. The dye solution was removed and replaced with assay buffer. Cell plates were held for 10-15 min at room temperature and were then loaded into the Functional Drug Screening System 6000 (FDSS 6000, Hamamatsu, Japan).
After establishment of a fluorescence baseline for about 3 seconds, the compounds of the present invention were added to the cells, and the response in cells was measured. 2.3 minutes later an EC20 concentration of the mGluR5 receptor agonist glutamate was added to the cells, and the response of the cells was measured for about 1.7 minutes. All test compounds were dissolved and diluted to a concentration of 10 mM in 100% DMSO and then serially diluted into assay buffer for a 2× stock solution in 0.6% DMSO; stock compounds were then added to the assay for a final DMSO concentration of 0.3% after the first addition to the assay well. Calcium fluorescence measures were recorded as fold over basal fluorescence; raw data was then normalized to the maximal response to glutamate.
The concentration-response curves of compounds of the present invention, obtained in the presence of EC20 of mGluR5 receptor agonist glutamate to determine positive allosteric modulation, were generated using Microsoft Excel with IDBS XLfit add-ins. The raw data file containing all time points was used as the data source in the analysis template. This was saved by the FDSS as a tab-delimitted text file. Data were normalized using a static ratio function (F/F0) for each measurement of the total 350 values per well divided by each well's initial value. […] This is sufficient time to capture the peak amplitude of the cellular calcium response. […] Each of the three values collected at each concentration of test compound were weighted evenly. […] These two methods are in good agreement for curves with a clear plateau at the high concentration range.

[2] = target: T2, human mGluR5 receptor (Homo sapiens, UniProt P41594); assay: Functional Assay 1: intracellular Ca2+ mobilization, positive allosteric modulation of glutamate EC20 response; format: cell-based; settings: for Emax: maximum % effect relative to glutamate ECMax
T2 construct: expressed in transfected cells; host or cells: HEK-293
Procedure: HEK-293 cells were stable transfected with human mGluR5a cDNA in expression vector pcDNA4/TO. For Assay 1, these human mGluR5 receptor over-expressing HEK-293 cells were grown at a density of 40,000 cells/well in PDL-coated 384-well plates. The following day, cells were preloaded with the calcium-sensing dye Fluo-4 AM and various concentrations of test compound were added in the absence of exogenous glutamate to test for direct agonist activity. Shortly (2.5 min) thereafter, an EC20 equivalent of glutamate (˜0.2 μM) was added. The fluorescence signal was monitored using a Hamamatsu Functional Drug Screening System (FDSS) fluorescence plate reader following the addition of compound alone (direct agonist response) and then the further addition of an EC20 of glutamate (positive allosteric modulation response). The pEC50 was defined as the negative log of the test compound concentration which produced an increase in the glutamate EC20-mediated response that was 50% of maximum. Individual amplitudes were expressed as % effect by multiplying each amplitude by 100 and then dividing the product by the mean of the amplitudes derived from the glutamate ECMax-treated wells. Emax values reported in this application are defined as the maximum % effect obtained in a concentration-response curve.

[3] = human mGluR5 over-expressing HEK-293 cells, glutamate EC20 (~0.2 μM), updated value

T1 sequence (P41594 21-1180 isoform P41594-2 limits assumed): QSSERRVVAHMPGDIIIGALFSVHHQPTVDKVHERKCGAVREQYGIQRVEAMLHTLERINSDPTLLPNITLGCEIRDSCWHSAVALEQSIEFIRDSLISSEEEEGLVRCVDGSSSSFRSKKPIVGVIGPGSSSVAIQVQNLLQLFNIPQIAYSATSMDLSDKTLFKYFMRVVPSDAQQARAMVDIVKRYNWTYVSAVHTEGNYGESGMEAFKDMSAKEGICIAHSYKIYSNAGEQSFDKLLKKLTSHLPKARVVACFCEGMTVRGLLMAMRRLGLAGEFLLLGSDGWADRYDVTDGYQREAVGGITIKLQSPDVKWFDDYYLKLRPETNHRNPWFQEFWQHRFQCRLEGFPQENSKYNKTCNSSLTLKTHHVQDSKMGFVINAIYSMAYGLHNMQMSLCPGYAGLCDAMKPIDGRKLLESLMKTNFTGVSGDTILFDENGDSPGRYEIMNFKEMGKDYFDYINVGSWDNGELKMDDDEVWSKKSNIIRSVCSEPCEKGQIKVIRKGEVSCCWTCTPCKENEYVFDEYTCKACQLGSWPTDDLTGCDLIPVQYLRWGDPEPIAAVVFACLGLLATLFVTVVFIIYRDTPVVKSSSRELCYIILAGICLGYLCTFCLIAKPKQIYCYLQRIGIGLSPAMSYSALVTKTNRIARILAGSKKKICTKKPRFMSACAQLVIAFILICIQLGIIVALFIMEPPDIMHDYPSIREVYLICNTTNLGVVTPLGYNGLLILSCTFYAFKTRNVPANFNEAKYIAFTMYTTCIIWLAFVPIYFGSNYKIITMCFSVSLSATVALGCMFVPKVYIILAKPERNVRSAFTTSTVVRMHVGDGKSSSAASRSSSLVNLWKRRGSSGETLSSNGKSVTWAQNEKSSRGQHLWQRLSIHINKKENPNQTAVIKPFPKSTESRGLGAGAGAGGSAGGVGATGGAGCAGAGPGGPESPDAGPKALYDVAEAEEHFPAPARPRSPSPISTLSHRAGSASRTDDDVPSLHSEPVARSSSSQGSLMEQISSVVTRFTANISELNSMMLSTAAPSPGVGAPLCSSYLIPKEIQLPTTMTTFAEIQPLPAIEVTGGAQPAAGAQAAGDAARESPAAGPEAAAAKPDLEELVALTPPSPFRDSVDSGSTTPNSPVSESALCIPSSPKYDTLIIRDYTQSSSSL
T2 sequence (P41594 21-1180 isoform P41594-2 limits assumed): as above

SMILES	EC50 [1]	Emax [1]	also measured
Cc1ccc(COc2nc3c(s2)C(=O)NCC3)cc1 [Compound 72, 6,7-dihydro-2-[(4-methylphenyl)methoxy]-thiazolo[5,4-c]pyridin-4(5H)-one]	–	–	EC50 [2, 3]: > 30200 nM; Emax [2]: 10%
O=C1c2sc(COc3ccccc3)nc2CCN1c1ccncc1 [Compound 49, 6,7-dihydro-2-(phenoxymethyl)-5-(4-pyridinyl)-thiazolo[5,4-c]pyridin-4(5H)-one]	–	–	pEC50 [1]: 5.57
O=C1c2sc(COc3cccc(F)c3)nc2CCN1C1CC1 [Compound 40, 5-cyclopropyl-2-[(3-fluorophenoxy)methyl]-6,7-dihydro-thiazolo[5,4-c]pyridin-4(5H)-one]	1550 nM	39%	melting point: 243.9 to 245.7 °C
O=C1c2sc(COc3ccccc3F)nc2CCN1CC1CC1 [Compound 42, 5-(cyclopropylmethyl)-2-[(2-fluorophenoxy)methyl]-6,7-dihydro-thiazolo[5,4-c]pyridin-4(5H)-one]	1100 nM	67%	melting point: 85.3 to 87.1 °C
Cc1ccccc1COc1nc2c(s1)C(=O)NCC2 [Compound 67, 6,7-dihydro-2-[(2-methylphenyl)methoxy]-thiazolo[5,4-c]pyridin-4(5H)-one]	> 30200 nM	18%	–
O=C1NCCc2nc(COc3ccccc3)sc21 [Compound 2, 6,7-dihydro-2-(phenoxymethyl)-thiazolo[5,4-c]pyridin-4(5H)-one]	> 10000 nM	84%	melting point: 170.5 °C
COc1ccccc1N1CCc2nc(COc3ccccc3F)sc2C1=O [Compound 36, 2-[(2-fluorophenoxy)methyl]-6,7-dihydro-5-(2-methoxyphenyl)-thiazolo[5,4-c]pyridin-4(5H)-one]	2000 nM	71%	–
O=C1NCCc2nc(OCc3ccc(F)cc3)sc21 [Compound 71, 2-[(4-fluorophenyl)methoxy]-6,7-dihydro-thiazolo[5,4-c]pyridin-4(5H)-one trifluoroacetate]	–	–	EC50 [2, 3]: > 30200 nM; Emax [2]: 8%
O=C1c2sc(COc3ccccc3)nc2CCN1c1ccccn1 [Compound 45, 6,7-dihydro-2-(phenoxymethyl)-5-(2-pyridinyl)-thiazolo[5,4-c]pyridin-4(5H)-one]	832 nM	85%	–
Cc1cccnc1N1CCc2nc(COc3ccccc3)sc2C1=O [Compound 52, 6,7-dihydro-5-(3-methyl-2-pyridinyl)-2-(phenoxymethyl)-thiazolo[5,4-c]pyridin-4(5H)-one]	1350 nM	82%	–
COc1cccc(COc2nc3c(s2)C(=O)N(c2ccc(F)cc2F)CC3)c1 [Compound 80, 5-(2,4-difluorophenyl)-6,7-dihydro-2-[(3-methoxyphenyl)methoxy]-thiazolo[5,4-c]pyridin-4(5H)-one]	–	–	EC50 [2, 3]: > 30200 nM; Emax [2]: 26%
O=C1c2sc(COc3ccccc3)nc2CCN1c1cccnc1 [Compound 48, 6,7-dihydro-2-(phenoxymethyl)-5-(3-pyridinyl)-thiazolo[5,4-c]pyridin-4(5H)-one]	4680 nM	78%	–
CC(C)N1CCc2nc(COc3cccc(F)c3)sc2C1=O [Compound 64, 2-[(3-fluorophenoxy)methyl]-6,7-dihydro-5-(1-methylethyl)-thiazolo[5,4-c]pyridin-4(5H)-one]	> 30200 nM	18%	–
COCCN1CCc2nc(COc3ccccc3)sc2C1=O [Compound 4, 6,7-dihydro-5-(2-methoxyethyl)-2-(phenoxymethyl)-thiazolo[5,4-c]pyridin-4(5H)-one]	> 10000 nM	69%	–
O=C1NCCc2nc(OCc3ccccc3F)sc21 [Compound 69, 2-[(2-fluorophenyl)methoxy]-6,7-dihydro-thiazolo[5,4-c]pyridin-4(5H)-one trifluoroacetate]	–	–	EC50 [2, 3]: > 30200 nM; Emax [2]: 15%
O=C1c2sc(OCc3ccccc3)nc2CCN1c1ccc(F)cc1 [Compound 1, 5-(4-fluorophenyl)-6,7-dihydro-2-(phenylmethoxy)-thiazolo[5,4-c]pyridin-4(5H)-one]	309 nM	57%	EC50 [2, 3]: 1290 nM; Emax [2]: 64%; EC50 ([2]; original value, which was updated as compound was further tested): 851 nM
O=C1NCCc2nc(OCc3cccc(F)c3)sc21 [Compound 70, 2-[(3-fluorophenyl)methoxy]-6,7-dihydro-thiazolo[5,4-c]pyridin-4(5H)-one trifluoroacetate]	–	–	EC50 [2, 3]: > 30200 nM; Emax [2]: 15%
N#Cc1cc(COc2nc3c(s2)C(=O)NCC3)ccc1F [Compound 66, 2-fluoro-5-[[(4,5,6,7-tetrahydro-4-oxothiazolo[5,4-c]pyridin-2-yl)oxy]methyl]-benzonitrile]	–	–	EC50 [2, 3]: > 30200 nM; Emax [2]: 24%
O=C1NCCc2nc(OCc3ccccc3)sc21 [Compound 65, 6,7-dihydro-2-(phenylmethoxy)-thiazolo[5,4-c]pyridin-4(5H)-one]	–	–	EC50 [2, 3]: > 30200 nM; Emax [2]: 25%

Continued, in another order:

EC50 [1]	Emax [1]	SMILES	also measured
209 nM	–	O=C1c2sc(COc3ccccc3)nc2CCN1CC1CC1 [Compound 39, 5-(cyclopropylmethyl)-6,7-dihydro-2-(phenoxymethyl)-thiazolo[5,4-c]pyridin-4(5H)-one]	melting point: 292.6 to 302.9 °C
282 nM	71%	O=C1c2sc(COc3ccccc3F)nc2CCN1c1ccc(F)cc1 [Compound 31, 2-[(2-fluorophenoxy)methyl]-5-(4-fluorophenyl)-6,7-dihydro-thiazolo[5,4-c]pyridin-4(5H)-one]	melting point: > 280 °C
214 nM	38%	O=C1c2sc(OCc3cccc(F)c3)nc2CCN1c1ccc(F)cc1 [Compound 19, 5-(4-fluorophenyl)-2-[(3-fluorophenyl)methoxy]-6,7-dihydro-thiazolo[5,4-c]pyridin-4(5H)-one]	melting point: 127.4 to 128.9 °C
3630 nM	75%	Cc1ccnc(N2CCc3nc(COc4ccccc4)sc3C2=O)c1 [Compound 51, 6,7-dihydro-5-(4-methyl-2-pyridinyl)-2-(phenoxymethyl)-thiazolo[5,4-c]pyridin-4(5H)-one]	–
251 nM	82%	O=C1c2sc(COc3ccccc3)nc2CCN1c1ccc(F)cn1 [Compound 47, 5-(5-fluoro-2-pyridinyl)-6,7-dihydro-2-(phenoxymethyl)-thiazolo[5,4-c]pyridin-4(5H)-one]	–
1480 nM	48%	C[C@@H](N1CCc2nc(COc3ccc(F)cc3)sc2C1=O)C(C)(C)C [Compound 34, 2-[(4-fluorophenoxy)methyl]-6,7-dihydro-5-[(1R)-1,2,2-trimethylpropyl]-thiazolo[5,4-c]pyridin-4(5H)-one]	–
3470 nM	45%	CN1CCc2nc(OCc3ccccc3)sc2C1=O [Compound 24, 6,7-dihydro-5-methyl-2-(phenylmethoxy)-thiazolo[5,4-c]pyridin-4(5H)-one]	–
> 30200 nM	20%	Cc1cccc(COc2nc3c(s2)C(=O)NCC3)c1 [Compound 68, 6,7-dihydro-2-[(3-methylphenyl)methoxy]-thiazolo[5,4-c]pyridin-4(5H)-one]	–
1200 nM	84.5%	Cc1ccc(N2CCc3nc(COc4ccccc4)sc3C2=O)nc1 [Compound 5, 6,7-dihydro-5-(5-methyl-2-pyridinyl)-2-(phenoxymethyl)-thiazolo[5,4-c]pyridin-4(5H)-one]	–
1380 nM	69%	O=C1c2sc(COc3ccccc3)nc2CCN1c1ncccc1F [Compound 50, 5-(3-fluoro-2-pyridinyl)-6,7-dihydro-2-(phenoxymethyl)-thiazolo[5,4-c]pyridin-4(5H)-one]	–
562 nM	71%	O=C1c2sc(COc3ccccc3)nc2CCN1c1ccncc1F [Compound 58, 5-(3-fluoro-4-pyridinyl)-6,7-dihydro-2-(phenoxymethyl)-thiazolo[5,4-c]pyridin-4(5H)-one]	–
2290 nM	78%	O=C1c2sc(COc3ccccc3)nc2CCN1CC1CCOCC1 [Compound 3, 6,7-dihydro-2-(phenoxymethyl)-5-[(tetrahydro-2H-pyran-4-yl)methyl]-thiazolo[5,4-c]pyridin-4(5H)-one]	–
2630 nM	37.5%	CC(C)N1CCc2nc(COc3ccccc3)sc2C1=O [Compound 63, 6,7-dihydro-5-(1-methylethyl)-2-(phenoxymethyl)-thiazolo[5,4-c]pyridin-4(5H)-one]	–
